Experimental data taken from PubChem BioAssay (NCI).
Several values for one entry are separate records, joined by “and”; a condition that tells them apart may be missing. Equal entries are not always repeated.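 A five-concentration, 48-hour dose response in 96-well plates underlies each endpoint, interpolated linearly between surrounding concentrations. Here, GI50 denotes the concentration required for 50% inhibition of growth. TGI: total growth inhibition.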

How the values were obtained:
Experiment in all cases: growth of human tumour cells (NCI), 48 h
[1] = test system: A549 NSCLC
[2] = test system: CCRF-CEM leukemia
[3] = test system: HOP-62 NSCLC
[4] = test system: IGROV1 ovarian
[5] = test system: LOX IMVI melanoma
[6] = test system: MDA-MB-231 breast
[7] = test system: NCI/ADR-RES ovarian
[8] = test system: PC-3 prostate

O=C(Nc1cnc(C(F)(F)F)cn1)c1cc(Cl)ccc1O
GI50 [1]: 0.377 µM | TGI [1]: > 100 µM | GI50 [2]: 0.406 µM | TGI [2]: > 100 µM | GI50 [3]: 0.266 µM | TGI [3]: 2.35 µM | GI50 [4]: 0.374 µM | TGI [4]: > 100 µM | GI50 [5]: 0.291 µM | TGI [5]: 1.75 µM | GI50 [6]: 0.27 µM | TGI [6]: 0.946 µM | GI50 [7]: 0.279 µM | TGI [7]: 13.6 µM | GI50 [8]: 0.311 µM | TGI [8]: > 100 µM

CCSc1nc(N)c(C#N)c(-c2ccco2)c1C#N
GI50 [1]: 41.4 µM | TGI [1]: > 100 µM | GI50 [3]: 80.9 µM | TGI [3]: > 100 µM | GI50 [4]: 36.8 µM | TGI [4]: > 100 µM | GI50 [5]: 17.1 µM | TGI [5]: 37.1 µM | GI50 [6]: > 100 µM | TGI [6]: > 100 µM | GI50 [7]: 34 µM | TGI [7]: > 100 µM | GI50 [8]: 22.3 µM | TGI [8]: > 100 µM

O=S(=O)(NC1=NCCN1C(=S)SN1CCn2c1nsc2=S)c1cccc(OC(F)(F)F)c1
GI50 [1]: 17.4 µM | TGI [1]: 44.8 µM | GI50 [2]: 2.16 µM | TGI [2]: 4.22 µM | GI50 [3]: 8 µM | TGI [3]: 20.3 µM | GI50 [4]: 9.86 µM | TGI [4]: 46.6 µM | GI50 [5]: 3.71 µM | TGI [5]: 12.4 µM | GI50 [6]: 14.1 µM | TGI [6]: 35.4 µM | GI50 [7]: 12 µM | TGI [7]: 44.8 µM | GI50 [8]: 9.94 µM | TGI [8]: 26.4 µM

CCN(CC)CCCC(C)Nc1c(-c2ccccc2)cnc2cc(Cl)ccc12 (stereo not drawn)
GI50 [1]: 8.2 µM | TGI [1]: 40.7 µM | GI50 [2]: 14.4 µM | TGI [2]: > 100 µM | GI50 [3]: 9.62 µM | TGI [3]: 22.9 µM | GI50 [4]: 11.8 µM | TGI [4]: 31.4 µM | GI50 [5]: 2.2 µM | TGI [5]: 5.84 µM | GI50 [6]: 3.5 µM | TGI [6]: 13.2 µM | GI50 [7]: 11.6 µM | TGI [7]: 28.3 µM | GI50 [8]: 14.9 µM | TGI [8]: 60.4 µM

Nc1n[nH]c(N)c1N=Nc1ccc(O)cc1
GI50 [1]: 22.5 µM | TGI [1]: > 100 µM | GI50 [2]: 20 µM | TGI [2]: 63 µM | GI50 [3]: 31.8 µM | TGI [3]: > 100 µM | GI50 [4]: 20.6 µM | TGI [4]: 81.4 µM | GI50 [5]: 4.09 µM | TGI [5]: 53.6 µM | GI50 [6]: 16.8 µM | TGI [6]: 82.8 µM | GI50 [7]: 22.6 µM | TGI [7]: 92.4 µM | GI50 [8]: 20.3 µM | TGI [8]: > 100 µM

Cc1cccc2c(Nc3ccc(NS(C)(=O)=O)cc3)c3ccc([N+](=O)[O-])cc3nc12
GI50 [1]: 0.128 µM | TGI [1]: 3.24 µM | GI50 [2]: 0.326 µM | TGI [2]: 4.52 µM | GI50 [3]: 0.373 µM | TGI [3]: 4.87 µM | GI50 [4]: 0.954 µM | TGI [4]: 3.65 µM | GI50 [5]: 0.409 µM | TGI [5]: 2.13 µM | GI50 [6]: 2.05 µM | TGI [6]: 5.42 µM | GI50 [7]: 8.3 µM | TGI [7]: 47.1 µM | GI50 [8]: 1.49 µM | TGI [8]: 7.02 µM

NC(=O)c1cccc(-c2cc(C(N)=O)ccc2Cl)c1
GI50 [1]: 12.4 µM | TGI [1]: > 100 µM | GI50 [2]: 2.19 µM | TGI [2]: > 100 µM | GI50 [3]: 3.51 µM | TGI [3]: > 100 µM | GI50 [4]: 4.21 µM | TGI [4]: > 100 µM | GI50 [5]: 4.84 µM | TGI [5]: > 100 µM | GI50 [6]: 4.52 µM | TGI [6]: > 100 µM | GI50 [7]: 1.51 µM | TGI [7]: 25.9 µM | GI50 [8]: 3.03 µM | TGI [8]: 40.9 µM

CC(C)=Nn1cnc(C(=N)C#N)c1N
TGI [1]: > 100 µM | TGI [2]: > 100 µM | TGI [3]: > 100 µM | TGI [4]: > 100 µM | TGI [7]: > 100 µM | TGI [8]: > 100 µM

[N-]=[N+]=NC[C@H]1OCO[C@H](CN=[N+]=[N-])[C@H]2OCCOCCOc3ccccc3OCCOCCO[C@@H]21
TGI [1]: > 100 µM | TGI [2]: > 100 µM | TGI [3]: > 100 µM | TGI [4]: > 100 µM | TGI [5]: > 100 µM | TGI [6]: > 100 µM | TGI [7]: > 100 µM | TGI [8]: > 100 µM

CC1=C(Cl)C[C@@H](/C(C)=C\Cl)O[C@@]1(O)C(Br)Br
TGI [1]: 60.3 µM | TGI [2]: 57.5 µM | TGI [3]: > 100 µM | TGI [4]: > 100 µM | TGI [5]: > 100 µM | TGI [6]: 41.7 µM | TGI [8]: > 100 µM

Cc1ccc(N=C2SC(c3ccc(C)cc3)(c3ccc(C)cc3)c3ccccc32)cc1
TGI [1]: > 100 µM | TGI [2]: > 100 µM | TGI [3]: > 100 µM | TGI [4]: > 100 µM | TGI [5]: > 100 µM | TGI [6]: > 100 µM | TGI [7]: > 100 µM | TGI [8]: > 100 µM

CCOP(=O)(OCC)C1(O)CC(n2cc(C)c(=O)[nH]c2=O)OC1CO (stereo not drawn)
TGI [1]: > 100 µM | TGI [3]: > 100 µM | TGI [4]: > 100 µM | TGI [5]: > 100 µM | TGI [7]: > 100 µM | TGI [8]: > 100 µM

CC1C2CC(C/C2=N/O)C1(C)C (stereo not drawn)
TGI [1]: > 100 µM | TGI [2]: > 100 µM | TGI [3]: > 100 µM | TGI [4]: > 100 µM | TGI [6]: > 100 µM | TGI [8]: > 100 µM

COc1ccc2c(c1)/C(=C\c1c[nH]c3ccc(OC)cc13)C(=O)N2
GI50 [2]: 2.84 µM | TGI [2]: 9.33 µM | GI50 [3]: 2.72 µM | TGI [3]: 12.5 µM | GI50 [4]: 3.66 µM | TGI [4]: 17.1 µM | GI50 [5]: 3.25 µM | TGI [5]: 13.6 µM | GI50 [6]: 1.97 µM | TGI [6]: 6.32 µM | GI50 [7]: 2.65 µM | TGI [7]: 8.25 µM | GI50 [8]: 3.84 µM | TGI [8]: 16.3 µM

CCOC(=O)C1=C(C)N2C(=NC3=C(CCC/C3=C\c3ccc(Cl)cc3)C2c2ccc(Cl)cc2)S1 (stereo not drawn)
GI50 [1]: 2.08 µM | TGI [1]: 5.13 µM | GI50 [2]: 2.59 µM | TGI [2]: 7.87 µM | GI50 [3]: 2.55 µM | TGI [3]: 5.38 µM | GI50 [4]: 3.11 µM | TGI [4]: 10.1 µM | GI50 [5]: 1.75 µM | TGI [5]: 3.15 µM | GI50 [6]: 3.06 µM | TGI [6]: 16.6 µM | GI50 [7]: 2.56 µM | TGI [7]: 7.04 µM | GI50 [8]: 2.77 µM | TGI [8]: > 100 µM

C=CCn1c(=O)c2cnc(Nc3ccc(N4CCN(C)CC4)cc3)nc2n1-c1cccc(C(C)(C)O)n1
GI50 [1]: 1.14 µM and 1.47 µM | TGI [1]: 11.4 µM and > 10 µM | GI50 [2]: 0.271 µM and 0.294 µM | GI50 [3]: 1.4 µM and 0.802 µM | TGI [3]: 14.4 µM and > 10 µM | GI50 [4]: 0.184 µM and 0.225 µM | TGI [4]: 15.5 µM and > 5.26 µM | GI50 [5]: 0.433 µM and 0.537 µM | TGI [5]: 6.06 µM and > 7.93 µM | GI50 [6]: 1.33 µM and 0.624 µM | TGI [6]: 27.4 µM and > 7.83 µM | GI50 [7]: 2.19 µM and 2.73 µM | TGI [7]: 18.6 µM and > 10 µM | GI50 [8]: 1.41 µM and 1.06 µM | TGI [8]: > 65.6 µM

CSc1nc(C#N)c(N)n1C
TGI [1]: > 100 µM | TGI [2]: > 100 µM | TGI [3]: > 100 µM | TGI [4]: > 100 µM | TGI [5]: > 100 µM | TGI [6]: > 100 µM | TGI [7]: > 100 µM | TGI [8]: > 100 µM

COc1cc(C2CC(=O)Nc3c2cc(Br)c2ccccc32)cc(Br)c1OC (stereo not drawn)
GI50 [2]: 2.01 µM | TGI [2]: 21.5 µM | GI50 [3]: 1.45 µM | TGI [3]: 3.9 µM | GI50 [4]: 2.61 µM | TGI [4]: > 63.9 µM | GI50 [5]: 1.65 µM | TGI [5]: > 100 µM | GI50 [6]: 2.66 µM | TGI [6]: 7.42 µM | GI50 [7]: 0.398 µM | TGI [7]: 2.63 µM | GI50 [8]: 2.62 µM | TGI [8]: > 100 µM
